The values that follow come from ChEMBL document CHEMBL2331422, “Tetracyclic diterpenoids with isomerized isospongian skeleton and labdane diterpenoids from the fruits of Amomum kravanh” (J Nat Prod, 2013).

Series [1] is described as follows: Cytotoxicity against mouse RAW264.7 cells assessed as cell survival up to 100 uM by MTT assay. In kind it is cell-based. Particulars: read-out: Activity.
Series [2] in a line: Antiplatelet aggregation activity in New Zealand white rabbit platelet rich plasma assessed as inhibition of ADP-induced aggregation treated for 3 mins before ADP challenge by turbidimetric method. In kind it is functional. Particulars: Oryctolagus cuniculus, Newzealand white.
Series [3] deals with RAW264.7. Kind of series: Inhibition of nitric oxide production in LPS-stimulated mouse RAW264.7 cells at 100 uM by Griess reagent assay. It counts as functional. For orientation: Nitrite, measured by Griess reagent, commonly stands in for NO production.
Series [4] has as its system RAW264.7. Kind of series: Inhibition of nitric oxide production in LPS-stimulated mouse RAW264.7 cells by Griess reagent assay. In kind it is functional, cell-based.

On to `C=C1CC[C@H]2C(C)(C)CCC[C@]2(C)[C@H]1C/C=C(/CO)[C@@H](O)CO`, for which, in series [1], the viability worked out at 90%. For the same compound, the IC50 in series [2] was greater than 200 µM. In the series on RAW264.7 [3], this compound came in with an inhibition at 100 µM of less than 10%.

With `C=C1CC[C@H]2[C@](C)(CO)[C@@H](O)CC[C@]2(C)[C@H]1CCC1=CC(=O)OC1`, in series [1], the viability was determined as 90%. Also, in series [2], the IC50 worked out at 58.9 µM. In addition, in the series on RAW264.7 [3], the inhibition at 100 µM was less than 10%.

In the case of `C=C1CC[C@H]2[C@](C)(CO)[C@@H](O)CC[C@]2(C)[C@H]1C/C=C1\CCOC1=O`, the viability in series [1] came to 90%. The half-maximal inhibitory concentration (IC50) in series [2] was greater than 200 µM. The inhibition at 100 µM with RAW264.7 [3] is less than 10%.

In the case of `CC(=O)Oc1ccccc1C(=O)O` [ASPIRIN], the concentration for half-maximal inhibition (IC50) in series [2] was found to be 58.9 µM.

With `CC1(C)[C@@H](O)CC[C@]2(C)[C@H]3CCC4=CC(=O)O[C@@H]4[C@@]3(C)C(=O)C[C@@H]12` [KRAVANHIN A], the viability in series [1] worked out at 90%. For the same compound, the IC50 in series [2] was greater than 200 µM. In the series with RAW264.7 [3], this compound came in with an inhibition at 100 µM of less than 10%.

In the case of `CC1(C)CCC[C@]2(C)[C@H]3CCC4=CC(=O)O[C@@H]4[C@@]3(C)C(=O)C[C@@H]12` [KRAVANHIN B], the values for the IC50 (in the series on RAW264.7 [4]; in series [2]) were 36.2 µM and greater than 200 µM, respectively. In series [1], the viability was found to be 90%. In the series with RAW264.7 [3], this compound came in with an inhibition at 100 µM of less than 10%.

On to `CC1(C)C(=O)CC[C@]2(C)[C@H]3CCC4=CC(=O)O[C@@H]4[C@@]3(C)C(=O)C[C@@H]12` [KRAVANHIN C], for which, in series [1], the viability stood at 90%. Moreover, the IC50 in series [2] was greater than 200 µM. The compound further gave an inhibition at 100 µM with RAW264.7 [3] of less than 10%.

As to `CC1(C)CCC[C@]2(C)[C@H]3CC=C(CCO)C(O)[C@@]3(C)C(=O)C[C@@H]12` (some centres undefined) [KRAVANHIN D], in series [1], the viability was 90%. In addition, in series [2], the IC50 was greater than 200 µM. Moreover, the inhibition at 100 µM in the series with RAW264.7 [3] was less than 10%.

`CNC(=N)NCCC[C@H](N)C(=O)O` [TILARGININE]: half-maximal inhibition in the series with RAW264.7 [4] (IC50) was put at 40.4 µM.

In general, IC50 refers to the point on the concentration scale where inhibition reaches its midpoint. Broadly, the inhibition is how much of the control response was suppressed. Read a high inhibition as a response far below the control.
